Key:
CDK2/Cyclin A2 = CDK2/Cyclin A2 (Homo sapiens, UniProt P24941); test: (§1) Kinase Assay: In vitro enzymatic activity of the CDK isoforms CDK2/CycA2, CDK4/CycD3 and CDK6/cycD3 were measured using Mobility Shift Assay that monitors phosphorylation ratio of FAM labelled peptide (Peptide 18 for CDK2/CycA2, Peptide 8 for CDK4/CycD3 and CDK6/cycD3). CDK2/CycA2 and CDK6/cycD3 were assayed under buffer conditions in the presence of 50 mM HEPES (pH 7.5), 10 mM MgCl2, 0.0015% Brij-35, and 2 mM dithiothreitol, CDK4/CycD3 with buffer condition of 20 mM HEPES (pH 7.5), 10 mM MgCl2, 0.01% Triton X-100, and 2 mM dithiothreitol. Prepare compounds to 50× of the final desired highest inhibitor concentration by 100% DMSO and serial dilution in 3-fold for total of 10 concentrations. […] After assay for 60 min, 180 min, 60 min respectively at 28° C., reactions were terminated with stop solution (50 mM EDTA, 0.015% Brij-35, 0.2% Coating Reagent #3 and 100 mM HEPES (pH 7.5)). Collect conversion on Caliper EZ Reader.; type: protein-complex assay
CDK4/Cyclin D3 = CDK4/Cyclin D3 (Homo sapiens, UniProt P11802+P30281); test: as §1; type: protein-complex assay
Chain of CDK4/Cyclin D3 (P11802 whole entry): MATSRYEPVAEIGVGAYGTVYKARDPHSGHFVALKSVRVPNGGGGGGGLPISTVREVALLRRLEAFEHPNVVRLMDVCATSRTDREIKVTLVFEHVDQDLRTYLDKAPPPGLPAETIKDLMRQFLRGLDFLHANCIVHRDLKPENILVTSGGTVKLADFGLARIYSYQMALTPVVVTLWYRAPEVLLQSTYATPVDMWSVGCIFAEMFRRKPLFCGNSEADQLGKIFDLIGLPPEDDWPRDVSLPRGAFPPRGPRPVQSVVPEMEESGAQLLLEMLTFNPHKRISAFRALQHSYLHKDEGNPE
Chain of CDK4/Cyclin D3 (P30281 whole entry): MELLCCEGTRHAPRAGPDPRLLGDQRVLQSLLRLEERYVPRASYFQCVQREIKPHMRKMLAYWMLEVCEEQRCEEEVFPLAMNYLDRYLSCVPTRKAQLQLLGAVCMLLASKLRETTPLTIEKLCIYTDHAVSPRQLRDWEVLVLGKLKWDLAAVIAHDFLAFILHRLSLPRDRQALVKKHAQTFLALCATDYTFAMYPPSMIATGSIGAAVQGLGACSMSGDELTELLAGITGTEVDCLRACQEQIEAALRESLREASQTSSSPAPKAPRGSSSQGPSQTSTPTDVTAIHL

Q: For `CC(=O)c1c(C)c2cnc(Nc3ccc4c(c3)OC[C@H]3CNCCN43)nc2n(C2CCCC2)c1=O`, which IC50 (CDK2/Cyclin A2) is on record?
A: Its IC50 is less than 10 nM.

Q: Which IC50 (CDK4/Cyclin D3) does the source give for `CC(=O)c1c(C)c2cnc(Nc3ccc(N4CC5CNCC(C4)C5(F)F)cn3)nc2n(C2CCCC2)c1=O` here?
A: The IC50 was less than 100 nM.

Q: `CC(=O)c1c(C)c2cnc(Nc3ccc4c(c3)OC[C@@H]3CNCCN43)nc2n(C2CCCC2)c1=O` was tested. Which IC50 (CDK2/Cyclin A2) did it give?
A: The IC50 was less than 10 nM.

Source: ChEMBL document CHEMBL5728935, “Heterocycles useful as anti-cancer agents” (2022)
